According to US4762846A (priority 1986, dated 1988):
Values joined by “and” are separate entries in the source; they are usually repeats but may differ in a detail not shown here. Identical values can stand only once. “Also recorded” adds a separate entry of the source. Counter-ions that a name gives are not always drawn. Like-named read-outs stand apart in the source and are kept apart here.

Key:
Phencyclidine Receptor [1] = assay type: binding, rat; conditions: for IC50: read-out: Apparent IC50
PCP receptors [2] = assay: Scatchard analysis of [3H]TCP binding after treatment with affinity ligand; set-up: species or system rat
[3] = test system: phencyclidine receptors ([3H]PCP binding site); set-up: species or system rat
PCP receptors [4] = assay: [3H]PCP binding (Scatchard) in brain homogenates of rats pretreated i.c.v. with Metaphit or saline; set-up: species or system rat (male Sprague-Dawley); conditions: saline-pretreated rats; mean ±S.E.
[5] = test system: cerebellar Purkinje neurons; conditions: local administration, denervation or antipsychotics; cited from earlier work
[6] = test system: benzodiazepine receptors ([3H]diazepam site); assay type: binding, rat
muscarinic receptors = assay type: binding, rat
[7] = cited from earlier work
Phencyclidine Receptor [8] = assay type: binding, rat
opioid receptors = biological target: T1, opioid receptors (Rattus norvegicus, UniProt P33535); conditions: cited from earlier work
T1 construct: from tissue; host or cells: brain tissue (rat, inferred from the sister test)
T1 sequence (P33535 whole entry): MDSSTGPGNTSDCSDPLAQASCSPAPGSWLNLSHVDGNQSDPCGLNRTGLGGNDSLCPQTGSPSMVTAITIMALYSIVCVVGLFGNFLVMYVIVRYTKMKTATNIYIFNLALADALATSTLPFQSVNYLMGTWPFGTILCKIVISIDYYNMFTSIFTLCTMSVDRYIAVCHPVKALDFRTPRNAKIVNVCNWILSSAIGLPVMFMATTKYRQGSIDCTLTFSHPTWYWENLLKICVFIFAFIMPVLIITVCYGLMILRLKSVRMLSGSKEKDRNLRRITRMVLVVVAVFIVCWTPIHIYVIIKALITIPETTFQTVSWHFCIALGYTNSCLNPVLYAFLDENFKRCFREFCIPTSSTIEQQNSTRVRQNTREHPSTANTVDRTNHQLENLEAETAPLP

[9] = Water solubility of Metaphit salts; conditions: relative to the hydrochloride

With `CC(C)NC1(c2cccc(N=C=S)c2)CCCCC1` [Isopropylphit] the IC50 (Phencyclidine Receptor [1]) was 2.7 µM.
For `S=C=Nc1csc(C2(N3CCCCC3)CCCCC2)c1` [Thiophit], the “affinity for the PCP receptor relative to other ligands” value (Phencyclidine Receptor [1]) was “much higher affinity for the PCP receptors; also recorded: considerably higher affinity for the PCP receptor than either of the other two affinity ligands”, the “potency relative to metaphit” value (Phencyclidine Receptor [1]) was “three times as potent as metaphit” and the IC50 (Phencyclidine Receptor [1]) was 0.9 µM. The “Bmax ([3H]-TCP) in treated tissue” value (PCP receptors [2]; 10 μM affinity ligand) was 700 fmol/mg protein, the “reduction in Bmax” value (PCP receptors [2]; 10 μM affinity ligand) was roughly 30% and the Kd (PCP receptors [2]; 10 μM affinity ligand, value is for [3H]-TCP (1.0 to 150 nM), read-out: Kd ([3H]-TCP) in treated tissue) was 0.027 µM.
In the case of `c1ccc(C2(N3CCCCC3)CCCCC2)cc1` [[3H]-PCP], the “Non-specific binding of radioligand” value ([3]; [3H]-PCP) is reported as 30 % of the total binding and the Kd (PCP receptors [4]) is reported as 0.237 ± 0.008 µM.
In the case of `NCCc1cc(O)c(O)cc1O` [6-OHDA], the “effect on PCP/PCMP-induced depressions of cerebellar Purkinje neurons” value [5] is given as “completely eliminates stereospecific Purkinje cell responses to PCMP”.
In the case of `S=C=Nc1cccc(C2(N3CCCCC3)CCCCC2)c1` [Metaphit, 1-[1-(3-isothiocyanatophenyl)cyclohexyl]piperidine], the “Maximum % Alkylation by 10 uM Metaphit” value [6] is reported as 0%, the “Maximum % Alkylation by 10 uM Metaphit” value (muscarinic receptors) is reported as 0% and the “irreversible loss of QNB binding” value (muscarinic receptors) is reported as “without a significant loss of QNB binding”.
For `c1csc(C2(N3CCCCC3)CCCCC2)c1` [[3H]-TCP], the “Non-specific binding of radioligand” value (Phencyclidine Receptor [1]) was 10% and the Kd (PCP receptors [2]; control tissue, [3H]-TCP 1.0 to 150 nM, read-out: Kd for control ([3H]-TCP)) was 0.015 µM.
In the case of `c1ccc(C2(N3CCCCC3)CCCCC2)cc1` [PCP, 1-(1-phenylcyclohexyl)piperidine], the IC50 ([3]; read-out: IC50) is reported as 0.075 µM and 0.07 µM, the IC50 ([3]; read-out: apparent IC50) is reported as 0.15 µM and the IC50 (Phencyclidine Receptor [1]) is reported as 0.07 µM. The “duration of psychological side effects” value ([7]; use as anesthetic) was “more than 12 hours”, the washout from homogenate (Phencyclidine Receptor [8]; 10 uM PCP alone) was “completely washed out of the homogenate” and the IC50 [6] was greater than 200 µM. The IC50 (opioid receptors) was 13 µM and the IC50 (muscarinic receptors) was 25 µM.
Compound `CC(C)NC1(c2ccccc2)CCCCC1` [PCI] has an IC50 ([3]; read-out: apparent IC50) of 0.05 µM.
Work on `CCNC1(c2ccccc2)CCCCC1` [PCE, (1-Phenylcyclohexyl)ethylamine] yielded an IC50 ([3]; read-out: apparent IC50) of 0.24 µM.
In the case of lithium, the “effect on PCP/PCMP-induced depressions of cerebellar Purkinje neurons” value [5] is listed as “strongly antagonized PCP-induced depressions”.
`CCNC1(c2cccc(N=C=S)c2)CCCCC1` [Ethylphit] showed an IC50 (Phencyclidine Receptor [1]) of 3.84 µM.
With `c1csc(C2(N3CCCCC3)CCCCC2)c1` [TCP] the “potency relative to PCI” value [3] was “twice as potent as PCI”, the “affinity for the PCP receptor relative to PCP” value (Phencyclidine Receptor [1]) was “considerably higher affinity for the PCP receptor than PCP” and the IC50 (Phencyclidine Receptor [1]) was 0.02 µM. For the same compound, the washout from homogenate (Phencyclidine Receptor [8]) was “completely washed out of the homogenate”.
For `CNC1(c2ccccc2Cl)CCCCC1=O` (stereo not drawn) [Ketamine], the “psychotomimetic effects relative to PCP” value ([7]; in vivo) is listed as “psychotomimetic effects that do not occur as frequently as with PCP”.
For `S=C=Nc1cccc(C2(N3CCCCC3)CCCCC2)c1` [methanesulfonate salt], the solubility in water [9] was “considerably more soluble in water than the hydrochloride”.
